Where a name gives a salt, the structure may show the parent alone.

As usually defined, the melting point is the temperature, or range, at which the solid turns liquid.

`COC(=O)/C=C/c1ccc(OC(=O)[C@@]2(C)CC[C@]3(C)CC[C@]4(C)C(=CC(=O)[C@@H]5[C@@]6(C)CC[C@H](OC(=O)[C@@H](N)CC[Se]C)C(C)(C)[C@@H]6CC[C@]54C)[C@@H]3C2)cc1` (as salt: hydrochloride) [Compound 46, trans-4-Hydroxycinnamic acid methyl ester 3β-(l-selenomethionine)-11-oxo-olean-12-en-30-oate hydrochloride]: the melting point lay within 218 to 221 °C.
As for `CCOC(=O)/C=C/c1ccc(OC(=O)[C@@]2(C)CC[C@]3(C)CC[C@]4(C)C(=CC(=O)[C@@H]5[C@@]6(C)CC[C@H](OC(=O)[C@@H](N)CC[Se]C)C(C)(C)[C@@H]6CC[C@]54C)[C@@H]3C2)c(OC)c1` (as salt: hydrochloride) [Compound 44, Ferulic acid ethyl ester 3β-(l-selenomethionine)-11-oxo-olean-12-en-30-oate hydrochloride], the melting point lay in the range of 205 to 207 °C.
The compound `CCOC(=O)/C=C/c1cccc(OC(=O)[C@@]2(C)CC[C@]3(C)CC[C@]4(C)C(=CC(=O)[C@@H]5[C@@]6(C)CC[C@H](OC(=O)[C@@H](N)CCSC)C(C)(C)[C@@H]6CC[C@]54C)[C@@H]3C2)c1` (as salt: hydrochloride) [Compound 55, trans-3-Hydroxycinnamic acid ethyl ester 3β-(l-methionine)-11-oxo-olean-12-en-30-oate hydrochloride] returned a melting point of 183 to 185 °C.
In the case of `CCOC(=O)/C=C/c1ccc(OC(=O)[C@@]2(C)CC[C@]3(C)CC[C@]4(C)C(=CC(=O)[C@@H]5[C@@]6(C)CC[C@H](OC(=O)[C@@H](N)CCSC)C(C)(C)[C@@H]6CC[C@]54C)[C@@H]3C2)c(OC)c1` (as salt: hydrochloride) [Compound 43, Ferulic acid ethyl ester 3β-(l-methionine)-11-oxo-olean-12-en-30-oate hydrochloride], the melting point was in the range of 191 to 194 °C.
In the case of `COC(=O)/C=C/c1cccc(OC(=O)[C@@]2(C)CC[C@]3(C)CC[C@]4(C)C(=CC(=O)[C@@H]5[C@@]6(C)CC[C@H](OC(=O)[C@@H](N)CCSC)C(C)(C)[C@@H]6CC[C@]54C)[C@@H]3C2)c1` (as salt: hydrochloride) [Compound 53, trans-3-Hydroxycinnamic acid methyl ester 3β-(l-methionine)-11-oxo-olean-12-en-30-oate hydrochloride], the melting point fell in the range of 190 to 192 °C.
The value for `CCOC(=O)/C=C/c1ccc(OC(=O)[C@@]2(C)CC[C@]3(C)CC[C@]4(C)C(=CC(=O)[C@@H]5[C@@]6(C)CC[C@H](OC(=O)[C@@H](N)CC[Se]C)C(C)(C)[C@@H]6CC[C@]54C)[C@@H]3C2)cc1` (as salt: hydrochloride) [Compound 48, trans-4-Hydroxycinnamic acid ethyl ester 3β-(l-selenomethionine)-11-oxo-olean-12-en-30-oate hydrochloride] was 208 to 211 °C; that for `COC(=O)/C=C/c1ccc(OC(=O)[C@@]2(C)CC[C@]3(C)CC[C@]4(C)C(=CC(=O)[C@@H]5[C@@]6(C)CC[C@H](OC(=O)[C@@H](N)CC[Se]C)C(C)(C)[C@@H]6CC[C@]54C)[C@@H]3C2)c(OC)c1` (as salt: hydrochloride) [Compound 42, Ferulic acid methyl ester 3β-(l-selenomethionine)-11-oxo-olean-12-en-30-oate hydrochloride] was 210 to 213 °C.
Turning to `CCOC(=O)/C=C/c1cccc(OC(=O)[C@@]2(C)CC[C@]3(C)CC[C@]4(C)C(=CC(=O)[C@@H]5[C@@]6(C)CC[C@H](OC(=O)[C@@H](N)CC[Se]C)C(C)(C)[C@@H]6CC[C@]54C)[C@@H]3C2)c1` (as salt: hydrochloride) [Compound 56, trans-3-Hydroxycinnamic acid ethyl ester 3β-(l-selenomethionine)-11-oxo-olean-12-en-30-oate hydrochloride], the melting point lay within 191 to 194 °C.
